These results are taken from ChEMBL document CHEMBL4371024, “Synthesis and characterization of pyridoxine, nicotine and nicotinamide salts of dithiophosphoric acids as antibacterial agents against resistant wound infection” (Bioorg Med Chem, 2019).

Converted amounts (≈) assume the structure as drawn. The source made the active and inactive calls. No cut-off for these calls is given here.

For series [1], the system named is Staphylococcus aureus. Briefly: Antibacterial activity against Staphylococcus aureus ATCC 29213 after 24 hrs by broth dilution method. The class given is functional. The note with it: ATCC 29213, 24 h.
The test system of series [2] is Pseudomonas aeruginosa. Briefly: Antibacterial activity against Pseudomonas aeruginosa ATCC 27853 after 24 hrs by broth dilution method. The class given is functional. The note with it: ATCC 27853, 24 h.
In series [3] the test system is Staphylococcus epidermidis. Briefly: Antibacterial activity against Staphylococcus epidermidis after 24 hrs by broth dilution method. The class given is functional.
The subject of series [4] is Klebsiella pneumoniae. Briefly: Antibacterial activity against Klebsiella pneumoniae after 24 hrs by broth dilution method. The format is functional.
Series [5] concerns Erythrocyte. As to the kind of experiment: Hemolytic activity in human erythrocytes at 1 mM. The format is ADME, cell-based. The note with it: 1000 µM.
Series [6] concerns Staphylococcus aureus. Briefly: Inhibition of extracellular component secretion and matrix formation in Staphylococcus aureus assessed as induction of bacterial aggregation at 1 uM by scanning electron microscopy. The format is functional, organism-based.
The test system of series [7] is Pseudomonas aeruginosa. Briefly: Inhibition of extracellular component secretion and matrix formation in Pseudomonas aeruginosa assessed as induction of bacterial aggregation at 1 uM by scanning electron microscopy. The class given is functional, organism-based.
Series [8] deals with Staphylococcus aureus. Briefly: Inhibition of extracellular component secretion and matrix formation in Staphylococcus aureus assessed as uncovering of bacterial cells at 1 uM by scanning electron microscopy. The format is functional, organism-based.
Series [9] relates to Pseudomonas aeruginosa. Briefly: Inhibition of extracellular component secretion and matrix formation in Pseudomonas aeruginosa assessed as uncovering bacterial cells at 1 uM by scanning electron microscopy. The class given is functional, organism-based.
Series [10] relates to Staphylococcus aureus. Briefly: Inhibition of extracellular component secretion and matrix formation in Staphylococcus aureus assessed as induction of morphological changes at 1 uM by scanning electron microscopy. The class given is functional, organism-based.
Series [11] relates to Staphylococcus aureus. As to the kind of experiment: Inhibition of extracellular component secretion and matrix formation in Staphylococcus aureus assessed as inhibition of polysaccharide matrix formation at 1 uM by scanning electron microscopy. The format is functional, organism-based.
Series [12] has as its system Pseudomonas aeruginosa. Briefly: Inhibition of extracellular component secretion and matrix formation in Pseudomonas aeruginosa assessed as induction of morphological changes at 1 uM by scanning electron microscopy. The class given is functional, organism-based.
For series [13], the system named is Pseudomonas aeruginosa. As to the kind of experiment: Inhibition of extracellular component secretion and matrix formation in Pseudomonas aeruginosa assessed as inhibition of polysaccharide matrix formation at 1 uM by scanning electron microscopy. The format is functional, organism-based.
The test system of series [14] is Pseudomonas aeruginosa. Briefly: Bactericidal activity against Pseudomonas aeruginosa ATCC 27853 incubated for 24 hrs followed by replating on Mueller-Hinton agar and further incubated for 24 hrs. The class given is functional. The note with it: ATCC 27853, 24 h.
In series [15] the test system is Klebsiella pneumoniae. As to the kind of experiment: Bactericidal activity against Klebsiella pneumoniae incubated for 24 hrs followed by replating on Mueller-Hinton agar and further incubated for 24 hrs. The format is functional.
For series [16], the system named is Staphylococcus aureus. Briefly: Bactericidal activity against Staphylococcus aureus ATCC 29213 incubated for 24 hrs followed by replating on Mueller-Hinton agar and further incubated for 24 hrs. The format is functional. The note with it: ATCC 29213, 24 h.
Series [17] concerns Staphylococcus aureus. Briefly: Antibacterial activity against methicillin, cefoxytin, levfloxacin-resistant and erythromycin, clindamycin-senstitive Staphylococcus aureus after 24 hrs by broth dilution method. The format is functional.
The subject of series [18] is Staphylococcus aureus. Briefly: Antibacterial activity against methicillin, cefoxytin-resistant and levofloxacin, erythromycin, clindamycin-senstitive Staphylococcus aureus after 24 hrs by broth dilution method. The format is functional.
Series [19] concerns Staphylococcus aureus. Briefly: Antibacterial activity against multidrug-resistant Staphylococcus aureus after 24 hrs by broth dilution method. The class given is functional.
For series [20], the system named is Pseudomonas aeruginosa. As to the kind of experiment: Antibacterial activity against multidrug-resistant Pseudomonas aeruginosa after 24 hrs by broth dilution method. The class given is functional.
For series [21], the system named is Pseudomonas aeruginosa. Briefly: Antibacterial activity against ciprofloxacin, imipenem, meronem-resistant and cefepime, piperacillin-tazobactam-sensitive Pseudomonas aeruginosa after 24 hrs by broth dilution method. The class given is functional.
For series [22], the system named is Pseudomonas aeruginosa. Briefly: Antibacterial activity against ciprofloxacin-resistant and multidrug-sensitive Pseudomonas aeruginosa after 24 hrs by broth dilution method. The format is functional.
The test system of series [23] is Pseudomonas aeruginosa. As to the kind of experiment: Antibacterial activity against multidrug-sensitive Pseudomonas aeruginosa after 24 hrs by broth dilution method. The format is functional.
For series [24], the system named is Klebsiella pneumoniae. As to the kind of experiment: Antibacterial activity against multidrug-sensitive Klebsiella pneumoniae after 24 hrs by broth dilution method. The class given is functional.
The subject of series [25] is Enterobacter cloacae. Briefly: Antibacterial activity against multidrug-resistant and sensitive Enterobacter cloacae after 24 hrs by broth dilution method. The class given is functional.
Series [26] deals with Escherichia coli. As to the kind of experiment: Antibacterial activity against multidrug-resistant and sensitive Escherichia coli after 24 hrs by broth dilution method. The class given is functional.
Series [27] is described as follows: Cytotoxicity against human HSF cells after 72 hrs by MTT assay. The format is cell-based.
A short description of series [28]: Cytotoxicity against human HSF cells after 24 hrs by MTT assay. The format is cell-based.
In series [29] the test system is Erythrocyte. As to the kind of experiment: Hemolytic activity in human erythrocytes at >100 uM. The format is ADME, cell-based.
Series [30] in a line: Aggregation property of the compound in DMEM culture medium at 1 mM after 1 hr by dynamic light scattering method. The class given is physicochemical. The note with it: 1000 µM.
Series [31] deals with Staphylococcus aureus. As to the kind of experiment: Drug interaction with Staphylococcus aureus cellular surface assessed as decrease in zeta potential at 1 mM treated for 1 hr followed by washing and measured by dynamic light scattering method. The class given is functional.
For series [32], the system named is Pseudomonas aeruginosa. Briefly: Drug interaction with Pseudomonas aeruginosa cellular surface assessed as decrease in zeta potential at 1 mM treated for 1 hr followed by washing and measured by dynamic light scattering method. The format is functional.
Series [33] relates to Klebsiella pneumoniae. As to the kind of experiment: Ratio of MBC to MIC against Klebsiella pneumoniae. The format is functional.
Series [34] has as its system Pseudomonas aeruginosa. As to the kind of experiment: Ratio of MBC to MIC against Pseudomonas aeruginosa ATCC 27853. The format is functional.
Series [35] relates to Staphylococcus aureus. Briefly: Ratio of MBC to MIC against Staphylococcus aureus ATCC 29213. The format is functional.
The nature of series [36]: Aggregation property of the compound assessed as mean hydrodynamic diameter at 1 mM after 1 hr by dynamic light scattering method. The format is physicochemical. Particulars: 1000 µM.

For the molecule `CC(C)[C@@H]1CC[C@@H](C)C[C@H]1OP(=S)(S)O[C@@H]1C[C@H](C)CC[C@H]1C(C)C`, the MIC in series [1] stood at 190 µM (≈ 77.3 µg/mL); in series [2] it was 380 µM (≈ 155 µg/mL); in series [3], 380 µM (≈ 155 µg/mL); in series [4] it was 1540 µM (≈ 626 µg/mL). The Activity result in series [5] is reported as “Toxic”.
For the molecule `CC(C)[C@@H]1CC[C@@H](C)C[C@H]1OP(=S)(S)O[C@@H]1C[C@H](C)CC[C@H]1C(C)C.Cc1ncc(CO)c(CO)c1O` [listing 1 of 2 here], the outcome in series [6], in [7], in [8] and in series [9] was Active.
As for `CC(C)[C@@H]1CC[C@@H](C)C[C@H]1OP(=S)(S)O[C@@H]1C[C@H](C)CC[C@H]1C(C)C.CN1CCC[C@H]1c1cccnc1` [listing 1 of 2 here], the outcome in series [10], in series [11], in [12] and in series [13] was Active.
Take `CC(C)[C@@H]1CC[C@@H](C)C[C@H]1OP(=S)(S)O[C@@H]1C[C@H](C)CC[C@H]1C(C)C.Cc1ncc(CO)c(CO)c1O` [listing 2 of 2 here]: the MIC in series [1] amounted to 20 µM; in series [2], 320 µM; in [3], 10 µM; in [4], 320 µM; in series [17] it was 20 µM; in series [18], 20 µM. Further, the MIC was 20 µM in series [19]; 323 µM in series [20]; 323 µM in series [21]; 323 µM in series [22]; 323 to 647 µM in [23]; 323 µM in [24]. For the same molecule, the MIC in series [25] and in series [26] was 323 µM each time. Moreover, the values for the minimal bactericidal concentration (MBC) in series [14], in [15] and in series [16] were 320 µM, 640 µM and 40 µM, respectively. For the same molecule, the IC50 stood at 48.6 µM in series [27] and 92.2 µM in series [28]. The Activity result is “Toxic” in [29], “Active” in series [30] and 108.9 nm in [36]. For the same molecule, the “fold change (FC)” value in [31] and in series [32] was 1.2 in each case. Besides, the Ratio in series [33], in [34] and in series [35] was 2 each time.
With `C[C@@H]1[C@@H](OP(=S)(S)O[C@H]2C[C@H]3C[C@@H]([C@@H]2C)C3(C)C)C[C@H]2C[C@@H]1C2(C)C`, the MIC was 390 µM (≈ 157 µg/mL) in series [1], 1560 µM (≈ 628 µg/mL) in [2], 190 µM (≈ 76.5 µg/mL) in series [3] and 3110 µM (≈ 1250 µg/mL) in series [4].
On the same counts, the results for `C[C@@H]1[C@@H](OP(=S)(S)O[C@H]2C[C@H]3C[C@@H]([C@@H]2C)C3(C)C)C[C@H]2C[C@@H]1C2(C)C.NC(=O)c1cccnc1` are 300 µM, 4780 µM, 300 µM and 4780 µM.
`CC(C)[C@@H]1CC[C@@H](C)C[C@H]1OP(=S)(S)O[C@@H]1C[C@H](C)CC[C@H]1C(C)C.CN1CCC[C@H]1c1cccnc1` [listing 2 of 2 here]: the minimum inhibitory concentration (MIC) in series [1] came to 20 µM; in [2], 320 µM; in series [3] it was 20 µM; in series [4] it was 320 µM; in series [17] it was 11 µM; in series [18], 11 µM. Moreover, the MIC in [19] amounted to 23 µM; in series [20], 360 µM; in [21], 360 µM; in series [22], 360 µM; in [23], 360 µM; in series [24], 360 µM. Besides, the MIC in series [25] and in series [26] was 360 µM in each case. Further, the minimum bactericidal concentration (MBC) in [14] is 320 µM; in [15], 640 µM; in [16], 20 µM. For the same molecule, the IC50 in [27] turned out to be 57.6 µM; in series [28], 81.3 µM. Further, the Activity result is “Toxic” in series [29], “Active” in series [30] and 141.7 nm in [36]. In addition, the “fold change (FC)” value in series [31] and in series [32] was 1.2 in each case. In addition, the Ratio in [33], in series [34] and in [35] was 1 throughout.
Regarding `CC1(C)[C@H]2CC[C@](C)(C2)[C@H]1OP(=S)(S)O[C@H]1C(C)(C)[C@H]2CC[C@]1(C)C2`, the MIC in series [1] is 240 µM (≈ 96.6 µg/mL); in [2], 1940 µM (≈ 781 µg/mL); in series [3] it was 240 µM (≈ 96.6 µg/mL); in series [4], 1940 µM (≈ 781 µg/mL).
